Among the data in patent US10442791B2, “DNA-PK inhibitors” (Vertex Pharmaceuticals Incorporated, priority 2012, dated 2019) are Ki values, retold here.

The target of the assay is DNA-PK (Homo sapiens, UniProt P78527). The assay can be described thus: DNA-PK inhibition assay (radiometric 33P-ATP kinase assay). Type of assay: biochemical. Particulars: 100 μM ATP; competitive tight-binding fit. As to the method:
Compounds were screened for their ability to inhibit DNA-PK kinase using a standard radiometric assay. Briefly, in this kinase assay the transfer of the terminal ^33P-phosphate in ^33P-ATP to a peptide substrate is interrogated. The assay was carried out in 384-well plates to a final volume of 50 μL per well containing approximately 6 nM DNA-PK, 50 mM HEPES (pH 7.5), 10 mM MgCl2, 25 mM NaCl, 0.01% BSA, 1 mM DTT, 10 μg/mL sheared double-stranded DNA (obtained from Sigma), 0.8 mg/mL DNA-PK peptide ([…] obtained from American Peptide), and 100 μM ATP. Accordingly, compounds of the invention were dissolved in DMSO to make 10 mM initial stock solutions. Serial dilutions in DMSO were then made to obtain the final solutions for the assay. A 0.75 μL aliquot of DMSO or inhibitor in DMSO was added to each well, followed by the addition of ATP substrate solution containing ^33P-ATP (obtained from Perkin Elmer). The reaction was started by the addition of DNA-PK, peptide and ds-DNA. After 45 min. the reaction was quenched with 25 μL of 5% phosphoric acid. The reaction mixture was transferred to MultiScreen HTS 384-well PH plates (obtained from Millipore), allowed to bind for one hour, and washed three times with 1% phosphoric acid. Following the addition of 50 μL of Ultima Gold™ high efficiency scintillant (obtained from Perkin Elmer), the samples were counted in a Packard TopCount NXT Microplate Scintillation and Luminescence Counter (Packard BioScience). The Ki values were calculated using Microsoft Excel Solver macros to fit the data to the kinetic model for competitive tight-binding inhibition.
For orientation: Ki means the equilibrium dissociation constant of an inhibitor or competing ligand from its target. For the compound `CNC(=O)c1ccnc2c([C@H](C)CNc3cc(-c4cnc(NC5CCN(CC(F)F)CC5)nc4)ncn3)cccc12` [Compound 1034], the Ki is under 30 nM.
In the case of `CNC(=O)c1c(F)cnc2c([C@H](C)CNc3cc(-c4cnc(OC)nc4)ncn3)cccc12` [Compound 1035] it was under 30 nM; in that of `CNC(=O)c1c(F)cnc2c([C@H](C)CNc3cc(-c4cnc(NC5CCN(CC(F)(F)F)CC5)nc4)ncn3)cccc12` [Compound 1036], under 30 nM; in that of `CNC(=O)c1c(F)cnc2c([C@H](C)CNc3cc(-c4cnc(NC5CCN(CC(F)F)CC5)nc4)ncn3)cccc12` [Compound 1037], under 30 nM.
In the case of `CNC(=O)c1ccnc2c([C@H](C)CNc3cc(-c4cnc(NC5CCN(CC(F)F)CC5)nc4)ncn3)ccc(F)c12` [Compound 1038] it was under 30 nM.
`CNC(=O)c1ccnc2c([C@H](C)CNc3cc(-c4ccc(N(C)C5CCN(CC(F)(F)F)CC5)nc4)ncn3)cccc12` [Compound 1042] had a Ki of under 30 nM.
Turning to `CNC(=O)c1c(F)cnc2c([C@H](C)CNc3cc(-c4ccc(CC5CCN(CC(F)F)CC5)nc4)ncn3)cccc12` [Compound 1043], the Ki was under 30 nM.
`CNC(=O)c1c(F)cnc2c([C@H](C)CNc3cc(-c4cnc(CC5CCN(C(C)=O)CC5)nc4)ncn3)cccc12` [Compound 1044] came in with a Ki of under 30 nM.
In the case of `CNC(=O)c1ccnc2c([C@H](C)CNc3cc(-c4cnc(CC5CCN(CC(F)F)CC5)nc4)ncn3)cccc12` [Compound 1045] it was under 30 nM.
With `CNC(=O)c1c(F)cnc2c([C@H](C)CNc3cc(-c4cnc(CC5CCN(CC(F)F)CC5)nc4)ncn3)cccc12` [Compound 1046] the figure was under 30 nM.
In the case of `CNC(=O)c1ccnc2c([C@H](C)CNc3cc(-c4cnc(CC5CCN(CC(F)(F)F)CC5)nc4)ncn3)cccc12` [Compound 1047] it was under 30 nM.
`CNC(=O)c1c(F)cnc2c([C@H](C)CNc3cc(-c4cnc(CC5CCN(CC(F)(F)F)CC5)nc4)ncn3)cccc12` [Compound 1048] gave a Ki of under 30 nM.
With `CNC(=O)c1c(F)cnc2c([C@H](C)CNc3cc(-c4cnc(OC5CCN(C)CC5)nc4)ncn3)cccc12` [Compound 1050] the figure was under 30 nM; with `CNC(=O)c1ccnc2c([C@H](C)CNc3cc(-c4cnc(NCCNC(C)=O)nc4)ncn3)cccc12` [Compound 1051], under 30 nM; with `CNC(=O)c1c(F)cnc2c([C@H](C)CNc3cc(-c4cnc(NCCNC(C)=O)nc4)ncn3)cccc12` [Compound 1052], under 30 nM.
With `CNC(=O)c1ccnc2c([C@H](C)CNc3cc(-c4cnc(NCCNC(C)=O)nc4)ncn3)ccc(F)c12` [Compound 1053] the figure was under 30 nM; with `CNC(=O)c1ccnc2c([C@H](C)CNc3cc(-c4cnc(NCC(F)(F)F)nc4)ncn3)ccc(F)c12` [Compound 1054], under 30 nM.
With `CNC(=O)c1ccnc2c([C@H](C)CNc3cc(-c4cnc(NC5CCN(C(C)=O)CC5)nc4)ncn3)ccc(F)c12` [Compound 1055] the figure was under 30 nM.
`CNC(=O)c1ccnc2c([C@H](C)CNc3cc(-c4cnc(N(C)C5CCN(C)CC5)nc4)ncn3)cccc12` [Compound 1057] returned a Ki of under 30 nM.
`CNC(=O)c1c(F)cnc2c([C@H](C)CNc3cc(-c4cnc(N(C)C5CCN(C)CC5)nc4)ncn3)cccc12` [Compound 1058] gave a Ki of under 30 nM.
With `CNC(=O)c1c(F)cnc2c([C@H](C)CNc3cc(-c4cnc(N(C)C5CCN(C(C)=O)CC5)nc4)ncn3)cccc12` [Compound 1059] the figure was under 30 nM.
In the case of `CNC(=O)c1ccnc2c([C@H](C)CNc3cc(-c4cnc(N(C)C5CCN(CC(F)F)CC5)nc4)ncn3)cccc12` [Compound 1060] it was under 30 nM; in that of `CNC(=O)c1ccnc2c([C@H](C)CNc3cc(-c4cnc(N(C)C5CCN(CC(F)(F)F)CC5)nc4)ncn3)cccc12` [Compound 1061], under 30 nM; in that of `CNC(=O)c1c(F)cnc2c([C@H](C)CNc3cc(-c4cnc(N(C)C5CCN(CC(F)F)CC5)nc4)ncn3)cccc12` [Compound 1062], under 30 nM.
In turn, `CNC(=O)c1c(F)cnc2c([C@H](C)CNc3cc(-c4ccc(NC5CCN(C)CC5)nc4)ncn3)cccc12` [Compound 1063] gave an inhibition constant Ki of under 30 nM.
With `CNC(=O)c1ccnc2c([C@H](C)CNc3cc(-c4ccc(NC5CCN(C(C)=O)CC5)nc4)ncn3)cccc12` [Compound 1064] the figure was under 30 nM; with `CNC(=O)c1c(F)cnc2c([C@H](C)CNc3cc(-c4ccc(NC5CCN(C(C)=O)CC5)nc4)ncn3)cccc12` [Compound 1065], under 30 nM; with `CNC(=O)c1ccnc2c([C@H](C)CNc3cc(-c4cnc(NCC(F)(F)F)nc4)ncn3)cccc12` [Compound 1066], under 30 nM.
With `CNC(=O)c1ccnc2c([C@H](C)CNc3cc(-c4ccc(C5(O)COC5)nc4)ncn3)cccc12` [Compound 1067] the figure was under 30 nM.
With `CNC(=O)c1c(F)cnc2c([C@H](C)CNc3cc(-c4ccc(C5(O)COC5)nc4)ncn3)cccc12` [Compound 1068] the figure was under 30 nM; with `CNC(=O)c1ccnc2c([C@H](C)CNc3cc(-c4ccc(C5(O)COC5)nc4)ncn3)ccc(F)c12` [Compound 1069], under 30 nM; with `CNC(=O)c1ccnc2c([C@H](C)CNc3cc(-c4cnc(CC5CCN(C(C)=O)CC5)nc4)ncn3)cccc12` [Compound 1071], under 30 nM.
Consider `CNC(=O)c1ccnc2c([C@H](C)CNc3cc(-c4cnc(OC5CCN(C)CC5)nc4)ncn3)ccc(F)c12` [Compound 1073], for which the inhibition constant Ki is under 30 nM.
For the compound `CNC(=O)CNc1ncc(-c2cc(NC[C@@H](C)c3cccc4c(C(=O)NC)ccnc34)ncn2)cn1` [Compound 1074], the Ki was under 30 nM.
As to `CNC(=O)CNc1ncc(-c2cc(NC[C@@H](C)c3cccc4c(C(=O)NC)c(F)cnc34)ncn2)cn1` [Compound 1075], the Ki was under 30 nM.
In the case of `CNC(=O)c1c(F)cnc2c([C@H](C)CNc3cc(-c4cnc(NCC(=O)N(C)C)nc4)ncn3)cccc12` [Compound 1076] it was under 30 nM; in that of `CNC(=O)c1ccnc2c([C@H](C)CNc3cc(-c4cnc(NCC(=O)N(C)C)nc4)ncn3)cccc12` [Compound 1077], under 30 nM.
With `CNC(=O)c1ccnc2c([C@H](C)CNc3cc(-c4cnc(NC5CCN(C)CC5)nc4)ncn3)cccc12` [Compound 1078] the figure was under 30 nM.
Regarding `CNC(=O)c1c(F)cnc2c([C@H](C)CNc3cc(-c4cnc(NC5CCN(C)CC5)nc4)ncn3)cccc12` [Compound 1079], the Ki was under 30 nM.
With `CNC(=O)c1ccnc2c([C@H](C)CNc3cc(-c4cnc(NC5CCN(CC(F)(F)F)CC5)nc4)ncn3)cccc12` [Compound 1080] the figure was under 30 nM.
On to `CNC(=O)c1ccnc2c([C@H](C)CNc3cc(-c4cnc(N(C)C5CCN(C(C)=O)CC5)nc4)ncn3)cccc12` [Compound 1081], for which the Ki is under 30 nM.
In the case of `CNC(=O)c1c(F)cnc2c([C@H](C)CNc3cc(-c4cnc(N(C)C5CCN(CC(F)(F)F)CC5)nc4)ncn3)cccc12` [Compound 1082] it was under 30 nM.
With `CNC(=O)c1ccnc2c([C@H](C)CNc3cc(-c4ccc(NC5CCN(CC(F)F)CC5)nc4)ncn3)cccc12` [Compound 1083] the figure was under 30 nM.
With `CNC(=O)c1c(F)cnc2c([C@H](C)CNc3cc(-c4ccc(NC5CCN(CC(F)F)CC5)nc4)ncn3)cccc12` [Compound 1084] the figure was under 30 nM.
